# Measured values taken from patent publication US7943600B2, “Antimicrobial combination therapy” (priority 2004, dated 2011).
# Key:
# Assay type in all cases: cell-based, E. coli
# GM7330 fpg::amp = assay: Survival curves after cisplatin treatment; settings: presence or absence of ampicillin in growth medium
# Experimental: (§1) MacConkey agar and LB broth were purchased from Difco. LB broth contained 10 g tryptone, 5 g yeast extract, and 10 g NaCl per 1 L. All antibiotics and cisplatin (cis-diammine-dichloro-platinum(II), or CDDP) were purchased from Sigma-Aldrich. Antibiotics were used at the following final concentrations: 15 μg/ml tetracycline (Tc), 100 μg/ml ampicillin, 50 μg/ml kanamycin, 100 μg/ml streptomycin, 30 μg/ml nalidixic acid and 20 μg/ml chloramphenicol. Cisplatin solutions were prepared by dissolution in phosphate buffered saline (PBS) at 37° C. for one hour with rotation, filtering the solution through a 0.2 μm Acrodisc filter, and determining the concentration by UV absorbance at A301 using a Beckmann DU-65 spectrophotometer. Appropriate doses of cisplatin were then prepared by dilution in PBS.
# (§2) Cells were grown overnight from single colonies in LB broth. The next morning, saturated overnight cultures were diluted 1:100 and grown for two hours to mid-log phase (cell density approximately 3×10^8 cells/ml). At this time, the cells were spun down, resuspended in M9 minimal salts, and treated with various concentrations of cisplatin at 37° C. for 1 hour. Exposure to cisplatin was stopped by dilution of the cells 1:100 in M9 salts. Appropriate serial dilutions were prepared for each dose and plated on LB plates or LB/Tet plates. Colonies were counted the next day after incubation at 37° C. Survival was calculated as a percentage of cells forming colonies in treated populations relative to untreated.
# CC104 mutY::cam = assay: Survival curves after cisplatin treatment; settings: presence or absence of chloramphenicol in growth medium
# Experimental: as §1, §2
# MG1655/F′Tn10 = assay: Survival curves (colony formation) after cisplatin treatment
# Experimental: Strain GM4292 was constructed by mating exponentially growing XL1-Blue (Stratagene) with MG1655 (both at 1-2×10^8/ml at a 1:1 ratio) for 60 min and plating dilutions of the mixture on MacConkey agar-tetracycline plates. A red tetracycline-resistant, nalidixic acid-sensitive colony was selected, purified and designated GM4292. Strain GM4293 was constructed by introducing F′42 (F′lac^+) from AB 1874 into KM81 by conjugation as described above and selecting for Lac^+ Str^R colonies. A purified Lac^+ Str^R recombinant overnight culture was diluted and plated on MacConkey agar-kanamycin and following incubation overnight at 37° C., white colonies were selected. White colonies can arise either by gene conversion, where the lac^+ allele on the F′42 plasmid is converted to lacZ::Kan, or by loss of the F′lac^+. The white colonies were tested for their ability to transfer kanamycin-resistance at high frequency to MG1655, indicating retention of the F′ plasmid. One of these MG1655 recipients was designated GM4293.
# as §1
# as §2, with “At this time, the cells were spun down, resuspended in M9 minimal salts, and treated with various concentrations of cisplatin at 37° C. for 1 hour.” left out
# AB1157 mutS::tet = assay: Survival curves after cisplatin treatment
# Experimental: as §1, §2
# CC104 mutY::tet = assay: Survival curves after cisplatin treatment
# Experimental: as §1, §2
# GM7330 fpg::tet = assay: Survival curves after cisplatin treatment
# Experimental: as §1, §2
# AB1157/pBR322 = assay: Survival curves after cisplatin treatment; settings: grown with tetracycline prior to cisplatin treatment
# Experimental: (§3) Strains carrying the pBR322 plasmid were created using a standard transformation by electroporation protocol. Briefly, cells were grown to mid-log phase, spun down, and washed 3 times in ice-cold sterile water. Cells were then resuspended in the final volume of 100 μl of ice-cold sterile water, and 10 μg pBR322 (New England BioLabs) was added. The BTX electroporation system, ElectroCell Manipulator 600, was used to deliver the pulse. After the pulse, cells were immediately resuspended in 1 ml of LB broth. Appropriate dilutions of cells were prepared in M9 minimal salts, plated on LB-ampicillin plates, and allowed to form colonies overnight.
# as §1, §2
# CC104/pBR322 = assay: Survival curves after cisplatin treatment; settings: grown with tetracycline prior to cisplatin treatment
# Experimental: as §3, §1, §2
# MG1655/pBR322 = assay: Survival curves after cisplatin treatment
# Experimental: as §3, §1, §2
# [1] = grown without tetracycline, treated with cisplatin alone
# [2] = grown without tetracycline, treated with cisplatin in the presence of tetracycline
# [3] = pre-treated and co-treated with tetracycline vs pre-treated only, cisplatin
# [4] = tetracycline absent from growth medium
smiles,measurement,setting,value
CC1(C)S[C@@H]2[C@H](NC(=O)[C@H](N)c3ccccc3)C(=O)N2[C@H]1C(=O)O [ampicillin],effect of antibiotic in growth medium on survival upon cisplatin treatment,GM7330 fpg::amp,did not produce the same degree of sensitization to cisplatin
O=C(N[C@H](CO)[C@H](O)c1ccc([N+](=O)[O-])cc1)C(Cl)Cl [chloramphenicol],effect of antibiotic in growth medium on survival upon cisplatin treatment,CC104 mutY::cam,did not produce the same degree of sensitization to cisplatin
"N.N.[Cl][Pt][Cl] [cisplatin, cis-diammine-dichloro-platinum(II)]",sensitivity to cisplatin,"MG1655/F′Tn10; 4 hours, 10-fold lower cisplatin doses, co-treated with tetracycline only",more sensitive to cisplatin than wild-type
same,survival,"MG1655/F′Tn10; 4 hours, 10-fold lower cisplatin doses, neither pre-treated nor co-treated with tetracycline",not different from survival of wild-type cells
same,sensitivity to cisplatin,"MG1655/F′Tn10; 4 hours, 10-fold lower cisplatin doses, pre-treated with tetracycline and co-treated with cisplatin and tetracycline",the most sensitive to cisplatin treatment
same,sensitivity to cisplatin,"MG1655/F′Tn10; 4 hours, 10-fold lower cisplatin doses, pre-treated with tetracycline only",more sensitive to cisplatin than wild-type
same,sensitivity to cisplatin,MG1655/F′Tn10; [1],equally sensitive to cisplatin as MG1655 cells not carrying any tet genes
same,survival,MG1655/F′Tn10; [2],their survival decreased
same,survival upon exposure to cisplatin,"MG1655/F′Tn10; grown without tetracycline, cisplatin 1 hour",not different from that of MG1655 wild-type cells
same,additional decrease in survival,MG1655/F′Tn10; [3],100 fold
same,survival upon subsequent treatment with cisplatin,"MG1655/F′Tn10; tetracycline 15 μg/ml in growth medium of overnight and log phase cultures, cisplatin 1 hour",dramatic decrease in survival
same,killed more effectively than wild-type bacteria,"MG1655/F′Tn10; tetracycline-resistant bacteria grown in tetracycline, then cisplatin in the presence of tetracycline, vs wild-type or resistant bacteria not exposed to tetracycline",about 10^5 fold
same,survival upon treatment with cisplatin,AB1157 mutS::tet; grown with tetracycline,dramatically decreased
same,survival upon treatment with cisplatin,AB1157 mutS::tet; [4],not different from respective wild-types
same,survival upon treatment with cisplatin,CC104 mutY::tet; grown with tetracycline,dramatically decreased
same,survival upon treatment with cisplatin,CC104 mutY::tet; [4],not different from respective wild-types
same,survival upon treatment with cisplatin,GM7330 fpg::tet; grown with tetracycline,dramatically decreased
same,survival upon treatment with cisplatin,GM7330 fpg::tet; [4],not different from respective wild-types
same,sensitization to cisplatin,AB1157/pBR322,did not produce similar sensitization to cisplatin
same,sensitization to cisplatin,CC104/pBR322,did not produce similar sensitization to cisplatin
same,sensitization to cisplatin,MG1655/pBR322; grown with tetracycline prior to cisplatin treatment,did not produce similar sensitization to cisplatin
same,sensitivity to cisplatin,MG1655/pBR322; [1],equally sensitive to cisplatin as MG1655 cells not carrying any tet genes
same,survival,MG1655/pBR322; [2],their survival decreased
same,additional decrease in survival,MG1655/pBR322; [3],100 fold
